Measured values as given in US6737383B1, “Herbicidal oxadiazolidines” (priority 1999, dated 2004).

Assays:
morningglory = assay: Test B pre/postemergence morningglory; assay type: in vivo, Ipomoea hederacea
Method in brief: (§1)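 Herbicidal effect was estimated by eye on a ten-point control scale after plants spent twelve to sixteen days in a greenhouse following soil or foliar treatment. Foliar sprays targeted plants at one to four leaves; all doses were formulated in a non-phytotoxic solvent with surfactant.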

giant foxtail = assay: Test B pre/postemergence giant foxtail; assay type: in vivo, Setaria faberii
Method in brief: as §1

rape = assay: Test B pre/postemergence rape; assay type: in vivo, Brassica napus
Method in brief: as §1

bamyardgrass = assay: Test B flood test barnyardgrass; assay type: in vivo, Echinochloa crus-galli
Method in brief: (§2)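 Flood test on plants grown to the 2-leaf stage; treated plants kept in greenhouse twelve to sixteen days, then visually rated against controls on a 0 (no effect) to 10 (complete control) scale.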

velvetleaf = assay: Test B pre/postemergence velvetleaf; assay type: in vivo, Abutilon theophrasti
Method in brief: as §1

blackgrass = assay: Test B pre/postemergence blackgrass; assay type: in vivo, Alopecurus myosuroides
Method in brief: as §1

crabgrass = assay: Test B pre/postemergence crabgrass; assay type: in vivo, Digitaria sanguinalis
Method in brief: as §1

purple nutsedge = assay: Test B pre/postemergence purple nutsedge; assay type: in vivo, Cyperus rotundus
Method in brief: as §1

duck salad = assay: Test B flood test duck salad; assay type: in vivo, Heteranthera limosa
Method in brief: as §2

pigweed = assay: Test B pre/postemergence pigweed; assay type: in vivo, Amaranthus retroflexus
Method in brief: as §1

rice = assay: Test B flood test rice; assay type: in vivo, Oryza sativa
Method in brief: as §2

wheat = assay: Test B pre/postemergence wheat; assay type: in vivo, Triticum aestivum
Method in brief: as §1

corn = assay: Test B pre/postemergence corn; assay type: in vivo, Zea mays
Method in brief: as §1

cocklebur = assay: Test B pre/postemergence cocklebur; assay type: in vivo, Xanthium strumarium
Method in brief: as §1

wild oat = assay: Test B pre/postemergence wild oat; assay type: in vivo, Avena fatua
Method in brief: as §1

surinam grass = assay: Test B pre/postemergence surinam grass; assay type: in vivo, Brachiaria decumbens
Method in brief: as §1

sugar beet = assay: Test B pre/postemergence sugar beet; assay type: in vivo, Beta vulgaris
Method in brief: as §1

soybean = assay: Test B pre/postemergence soybean; assay type: in vivo, Glycine max
Method in brief: as §1

smallflower flatsedge = assay: Test B flood test smallflower flatsedge; assay type: in vivo, Cyperus difformis
Method in brief: as §2

[1] = Postemergence, Rate 125 g/ha, scale 0 to 10, 0 is no effect, 10 is complete control
[2] = Postemergence, Rate 500 g/ha, scale 0 to 10, 0 is no effect, 10 is complete control
[3] = Preemergence, Rate 62 g/ha, scale of 0 to 10 where 0 is no effect and 10 is complete control
[4] = Preemergence, Rate 125 g/ha, scale 0 to 10, 0 is no effect, 10 is complete control
[5] = Preemergence, Rate 500 g/ha, scale of 0 to 10 where 0 is no effect and 10 is complete control
[6] = Rate 62 g/ha, Postemergence, scale 0 to 10, 0 no effect, 10 complete control
[7] = Rate 62 g/ha, flood test species, Pre-emergence, visual evaluation after twelve to sixteen days
[8] = Rate 125 g/ha, under heading Pre-emergence, flood test species, visual evaluation after twelve to sixteen days
[9] = Rate 250 g/ha, Pre-emergence (flood test species), scale 0 to 10, 0 is no effect, 10 is complete control
[10] = Rate 500 g/ha, Pre-emergence section of Table B, 0 to 10 scale (0 no effect, 10 complete control)
[11] = Preemergence, Rate 250 g/ha, scale 0 to 10, 0 is no effect, 10 is complete control
[12] = Postemergence, Rate 250 g/ha, scale 0 to 10
[13] = Rate 125 g/ha, Pre-emergence, flood test species, scale 0 to 10 where 0 is no effect and 10 is complete control
[14] = Rate 250 g/ha, Pre-emergence, flood-test species, scale 0 to 10, 0 is no effect, 10 is complete control
[15] = Rate 500 g/ha, Pre-emergence, flood test species, scale 0 to 10 (0 no effect, 10 complete control)
[16] = Postemergence, Rate 62 g/ha, scale 0 to 10, 0 is no effect, 10 is complete control
[17] = Rate 125 g/ha, Postemergence section (flood test species), scale 0 to 10, 0 no effect, 10 complete control
[18] = Rate 500 g/ha, listed under Postemergence (flood test species), scale 0 to 10, 0 no effect, 10 complete control
[19] = flood test, listed under Postemergence, Rate 250 g/ha, scale 0 to 10, 0 no effect, 10 complete control

C=C(Cn1c(=O)on(C(=O)N(c2ccccc2)C(C)C)c1=O)c1cccnc1 [Compound 498]
5: Plant response rating, Blackgrass (blackgrass; [2]) | Crabgrass plant response rating (crabgrass; [5])
0: Plant response rating, Morningglory (morningglory; [3]) | Morningglory plant response rating (morningglory; [4]) | Morningglory plant response rating (morningglory; [5]) | Plant response rating, Giant foxtail (giant foxtail; [3]) | Giant foxtail plant response rating (giant foxtail; [6]) | Rape plant response rating (rape; [1]) | Plant response rating, Rape (rape; [2]) | Plant response rating, Rape (rape; [3]) | Rape plant response rating (rape; [4]) | Rape plant response rating (rape; [5]) | Rape plant response rating (rape; [6]) | Plant response rating, Barnyardgrass (0 to 10 scale, 0 is no effect, 10 is complete control) (bamyardgrass; [7]) | Barnyardgrass plant response rating (0 to 10 scale, 0 is no effect, 10 is complete control) (bamyardgrass; [8]) | Barnyardgrass plant response rating (bamyardgrass; [9]) | Barnyardgrass plant response rating (bamyardgrass; [10]) | Velvetleaf plant response rating (velvetleaf; [1]) | Plant response rating, Velvetleaf (velvetleaf; [3]) | Velvetleaf plant response rating (velvetleaf; [4]) | Velvetleaf plant response rating (velvetleaf; [5]) | Velvetleaf plant response rating (velvetleaf; [6]) | Blackgrass plant response rating (blackgrass; [1]) | Plant response rating, Blackgrass (blackgrass; [3]) | Blackgrass plant response rating (blackgrass; [4]) | Blackgrass plant response rating (blackgrass; [11]) | Blackgrass plant response rating (blackgrass; [5]) | Blackgrass plant response rating (blackgrass; [6]) | Crabgrass plant response rating (crabgrass; [12]) | Plant response rating, Crabgrass (crabgrass; [3]) | Crabgrass plant response rating (crabgrass; [6]) | Nutsedge plant response rating (purple nutsedge; [1]) | Plant response rating, Nutsedge (purple nutsedge; [2]) | Plant response rating, Nutsedge (purple nutsedge; [3]) | Nutsedge plant response rating (purple nutsedge; [4]) | Nutsedge plant response rating (purple nutsedge; [5]) | Nutsedge plant response rating (purple nutsedge; [6]) | Plant response rating, Ducksalad (0 to 10 scale, 0 is no effect, 10 is complete control) (duck salad; [7]) | Ducksalad plant response rating (0 to 10 scale, 0 is no effect, 10 is complete control) (duck salad; [8]) | Ducksalad plant response rating (duck salad; [9]) | Ducksalad plant response rating (duck salad; [10]) | Redroot pigweed plant response rating (pigweed; [1]) | Plant response rating, Redroot pigweed (pigweed; [2]) | Plant response rating, Redroot pigweed (pigweed; [3]) | Redroot pigweed plant response rating (pigweed; [4]) | Redroot pigweed plant response rating (pigweed; [5]) | Redroot pigweed plant response rating (pigweed; [6]) | Plant response rating, Rice (0 to 10 scale, 0 is no effect, 10 is complete control) (rice; [7]) | Rice plant response rating (0 to 10 scale, 0 is no effect, 10 is complete control) (rice; [8]) | Rice plant response rating (rice; [9]) | Rice plant response rating (rice; [10]) | Wheat plant response rating (wheat; [1]) | Plant response rating, Wheat (wheat; [2]) | Plant response rating, Wheat (wheat; [3]) | Wheat plant response rating (wheat; [4]) | Wheat plant response rating (wheat; [5]) | Wheat plant response rating (wheat; [6]) | Corn plant response rating (corn; [1]) | Corn plant response rating (corn; [12]) | Plant response rating, Corn (corn; [2]) | Plant response rating, Corn (corn; [3]) | Corn plant response rating (corn; [4]) | Corn plant response rating (corn; [5]) | Corn plant response rating (corn; [6]) | Cocklebur plant response rating (cocklebur; [1]) | Cocklebur plant response rating (cocklebur; [12]) | Plant response rating, Cocklebur (cocklebur; [2]) | Plant response rating, Cocklebur (cocklebur; [3]) | Cocklebur plant response rating (cocklebur; [4]) | Cocklebur plant response rating (cocklebur; [11]) | Cocklebur plant response rating (cocklebur; [5]) | Cocklebur plant response rating (cocklebur; [6]) | Wild oats plant response rating (wild oat; [1]) | Plant response rating, Wild oats (wild oat; [2]) | Plant response rating, Wild oats (wild oat; [3]) | Wild oats plant response rating (wild oat; [4]) | Wild oats plant response rating (wild oat; [5]) | Wild oats plant response rating (wild oat; [6]) | B. signalgrass plant response rating (surinam grass; [1]) | B. signalgrass plant response rating (surinam grass; Postemergence, Rate 250 g/ha, scale 0 to 10, 0 no effect, 10 complete control) | Plant response rating, B. signalgrass (surinam grass; [2]) | Plant response rating, B. signalgrass (surinam grass; [3]) | B. signalgrass plant response rating (surinam grass; [4]) | B. signalgrass plant response rating (surinam grass; [11]) | B. signalgrass plant response rating (surinam grass; Preemergence, Rate 500 g/ha, scale 0 to 10, 0 is no effect, 10 is complete control) | B. signalgrass plant response rating (surinam grass; [6]) | Sugarbeets plant response rating (sugar beet; [1]) | Plant response rating, Sugarbeets (sugar beet; [2]) | Plant response rating, Sugarbeets (sugar beet; [3]) | Sugarbeets plant response rating (sugar beet; [4]) | Sugarbeets plant response rating (sugar beet; [5]) | Sugarbeets plant response rating (sugar beet; [6]) | Plant response rating, Soybean (soybean; [3]) | Soybean plant response rating (soybean; [4]) | Soybean plant response rating (soybean; [5]) | Plant response rating, S. Flatsedge (0 to 10 scale, 0 is no effect, 10 is complete control) (smallflower flatsedge; [7]) | S. Flatsedge plant response rating (0 to 10 scale, 0 is no effect, 10 is complete control) (smallflower flatsedge; [8]) | S. Flatsedge plant response rating (smallflower flatsedge; [9]) | S. Flatsedge plant response rating (smallflower flatsedge; [10])
8: Giant foxtail plant response rating (giant foxtail; [5])
2: Giant foxtail plant response rating (giant foxtail; [1]) | Giant foxtail plant response rating (giant foxtail; [4]) | Plant response rating, Velvetleaf (velvetleaf; [2]) | Plant response rating, Crabgrass (crabgrass; [2]) | Crabgrass plant response rating (crabgrass; [4])
1: Morningglory plant response rating (morningglory; [6]) | Soybean plant response rating (soybean; [1]) | Plant response rating, Soybean (soybean; [2]) | Soybean plant response rating (soybean; [6])
3: Morningglory plant response rating (morningglory; [1]) | Plant response rating, Giant foxtail (giant foxtail; [2])
4: Plant response rating, Morningglory (morningglory; [2])

CC(C)N(C(=O)n1oc(=O)n(Cc2cccnc2)c1=O)c1ccc(F)cc1 [Compound 366]
0: Plant response rating, Barnyardgrass (0 to 10 scale, 0 is no effect, 10 is complete control) (bamyardgrass; [7]) | Barnyardgrass plant response rating (bamyardgrass; [13]) | Barnyardgrass plant response rating (bamyardgrass; [14]) | Barnyardgrass plant response rating (bamyardgrass; [15]) | Plant response rating, Ducksalad (0 to 10 scale, 0 is no effect, 10 is complete control) (duck salad; [7]) | Ducksalad plant response rating (duck salad; [13]) | Ducksalad plant response rating (duck salad; [14]) | Ducksalad plant response rating (duck salad; [15]) | Plant response rating, Rice (0 to 10 scale, 0 is no effect, 10 is complete control) (rice; [7]) | Rice plant response rating (rice; [13]) | Rice plant response rating (rice; [14]) | Rice plant response rating (rice; [15]) | Plant response rating, S. Flatsedge (0 to 10 scale, 0 is no effect, 10 is complete control) (smallflower flatsedge; [7]) | S. Flatsedge plant response rating (smallflower flatsedge; [13]) | S. Flatsedge plant response rating (smallflower flatsedge; [14]) | S. Flatsedge plant response rating (smallflower flatsedge; [15])

CCN(CC)C(=O)n1oc(=O)n(Cc2ccccc2C)c1=O [Compound 84]
0: Barnyardgrass plant response rating (bamyardgrass; [16]) | Barnyardgrass plant response rating (bamyardgrass; [17]) | Barnyardgrass plant response rating (bamyardgrass; [18]) | Barnyardgrass plant response rating (bamyardgrass; [19]) | Ducksalad plant response rating (duck salad; [16]) | Ducksalad plant response rating (duck salad; [17]) | Ducksalad plant response rating (duck salad; [18]) | Ducksalad plant response rating (duck salad; [19]) | Rice plant response rating (rice; [16]) | Rice plant response rating (rice; [17]) | Rice plant response rating (rice; [18]) | Rice plant response rating (rice; [19]) | S. Flatsedge plant response rating (smallflower flatsedge; [16]) | S. Flatsedge plant response rating (smallflower flatsedge; [17]) | S. Flatsedge plant response rating (smallflower flatsedge; [18]) | S. Flatsedge plant response rating (smallflower flatsedge; [19])
